Patent publication US20230137667A1, “METHODS AND COMPOSITIONS FOR TREATMENT OF CORONAVIRUS INFECTION” (priority 2020, published 2023)
Read-outs that look alike come from different tables or passages of the source.

What was measured:
caspases 3/7 [1] = format: cell-based, human
caspases 3/7 [2] = format: cell-based, human; remark: listed apart in the source
[3] = test system: primary human lung microvascular endothelial cells (MVE)
[4] = test system: primary human lung fibroblasts (FB)
MERS-CoV [5] = format: cell-based
MERS-CoV [6] = format: cell-based; remark: listed apart in the source
[7] = test system: primary human lung microvascular endothelial cells (MVE); remark: listed apart in the source
[8] = test system: primary human lung fibroblasts (FB); remark: listed apart in the source

Row | Compound | caspase 3/7 activation (caspases 3/7 [1]) | caspase 3/7 activation (caspases 3/7 [2]) | cell viability [3] | cell viability [4] | MERS-CoV replication (nanoluciferase expression) (MERS-CoV [5]) | MERS-CoV replication (nanoluciferase expression) (MERS-CoV [6]) | cytotoxicity (CellTiter-Glo cell viability) [7] | cytotoxicity (CellTiter-Glo cell viability) [8] | caspase 3/7 activation above untreated infected cells (caspases 3/7 [1]) | caspase 3/7 activation above untreated infected cells (caspases 3/7 [2])
1 | C[C@H](CCC(=O)O)C[C@H](C)C[C@H](C)C(=O)/C=C(\O)[C@H](C)C[C@H](C)C/C=C/[C@@H](C)[C@@H](O)[C@@H](C)[C@@H](O)C[C@@H]1CC[C@@](C)([C@H]2CC[C@@](C)([C@@H](C)O)O2)O1 [ionomycin] | did not induce caspase 3/7 activation | did not induce caspase 3/7 activation | diminished cell viability | diminished cell viability | – | – | – | – | – | –
2 | O=C(COc1ccc(Cl)cc1)NC1CCC(NC(=O)COc2ccc(Cl)cc2)CC1 (stereo not drawn) [trans-ISRIB] | – | – | – | – | did not alter MERS-CoV replication in either infected MVE or FB | did not alter MERS-CoV replication in either infected MVE or FB | not cytotoxic at any dose tested | not cytotoxic at any dose tested | – | –
3 | Cc1ccc2cc(-c3c(C)ccc(C(=O)c4c(-c5ccccc5)n(C)n(-c5ccccc5)c4=O)c3N)ccc2n1 [AMG PERK 44] | – | – | – | – | – | – | dose dependent increase in cytotoxicity | – | No significant dose responsive change in caspase 3/7 activation above untreated infected cells | No significant dose responsive change in caspase 3/7 activation above untreated infected cells
4 | CN[C@@H]1C[C@H]2O[C@@](C)([C@@H]1OC)n1c3ccccc3c3c4c(c5c6ccccc6n2c5c31)C(=O)NC4 [staurosporine] | significantly induced caspase 3/7 activation | significantly induced caspase 3/7 activation | diminished cell viability | diminished cell viability | – | – | – | – | – | –
